Tests used:
HSAX2655 tumor = experiment: Well differentiated liposarcoma (WDLPS) patient-derived in vivo model HSAX2655, efficacy; set-up: species or system Harlan nude mice; conditions: p.o., q24h, Compound A 30 mg/kg, Compound C 75 mg/kg; for Tumor T/C: day 14 post 1st treatment; for Tumor ΔTvol: day 37 post transplantation (day 14 post 1st treatment)
Procedure: PDX tumors were induced by transplanting subcutaneously frozen pieces of tumors in the right flank of Harlan nude mice. After several weeks of growth, donor animals were sacrificed and tumors were taken out and cut in 3×3×3 mm^3 pieces. Each tumor piece was transplanted subcutaneously in the right flank of naive Harlan nude mice. Efficacy experiment could start 30 days post transplantation. Compounds A and C were formulated fresh for each administration. The compounds were dissolved in 0.5% methylcellulose. For efficacy experiments, mice were randomized into groups of n=5 and treated for 14 days. Compound A was injected at 30 mg/kg and Compound C at 75, 150 and 250 mg/kg. Mice were treated daily (q24 h) p.o. at 10 ml/kg for both drugs. On the last day of experiment, mice from each treatment group were sacrificed 4 and 24 h post last treatment and tumors were snap-frozen. Efficacy and tolerability were assessed by determining tumor volume and body weight, respectively. Tumor volume (TVol), determined from caliper measurements (using the formula I*w*h*π/6) were measured three times per week. Tumor response was quantified by the change in tumor volume (endpoint minus starting value in mm^3) as the T/C i.e. [formula] In the case of tumor regression, the tumor response was quantified by the percentage of regression of the starting TVol, ie Differences between the means of TVol and BW were assessed on the endpoint ΔTvol or % ΔBW using a 1-way ANOVA with Dunnett or Tukey's tests post-hoc. Linear correlations were explored by determining Pearson correlation coefficient, with P<0.05 considered as significant. A non-statistical analysis of the combination effects of therapy on the efficacy were calculated using a modification of the method described by Clark (1997) to obtain a Combination Index (CI). Thus, multiplication of the AUC-T/Cs for single agents A and B was compared to the AUC-T/C obtained for the actual combination A+B.

[1] = Tolerability in HSAX2655-tumor bearing mice (body weight, survival); assay type: in vivo; conditions: p.o., q24h, Compound A 30 mg/kg, Compound C 75 mg/kg, day 14 post 1st treatment; for Host Survival: survivors/group
Procedure: Compounds A and C were formulated fresh for each administration. The compounds were dissolved in 0.5% methylcellulose. For efficacy experiments, mice were randomized into groups of n=5 and treated for 14 days. Compound A was injected at 30 mg/kg and Compound C at 75, 150 and 250 mg/kg. Mice were treated daily (q24 h) p.o. at 10 ml/kg for both drugs. On the last day of experiment, mice from each treatment group were sacrificed 4 and 24 h post last treatment and tumors were snap-frozen.
Efficacy and tolerability were assessed by determining tumor volume and body weight, respectively. Tumor volume (TVol), determined from caliper measurements (using the formula I*w*h*π/6) were measured three times per week. Tumor response was quantified by the change in tumor volume (endpoint minus starting value in mm^3) as the T/C i.e.
[formula] The body-weight (BW) of the mice was measured three times per week allowing calculation at any particular time-point relative to the day of initiation of treatment (day 0) of both the percentage change in BW (Δ % BW).
Differences between the means of TVol and BW were assessed on the endpoint ΔTvol or % ΔBW using a 1-way ANOVA with Dunnett or Tukey's tests post-hoc. Linear correlations were explored by determining Pearson correlation coefficient, with P<0.05 considered as significant.

[2] = tested on: liposarcoma cell line 449b; experiment: Microscopy (nuclei count) proliferation assay, 72 hrs, 449b cells; assay type: cell-based; conditions: single agent
Procedure: (§1) Compounds B and C were dissolved in 100% DMSO (Sigma, Catalog number D2650) at concentrations of 10 mM and stored at −20° C. until use. Compounds were arrayed in 300 uL deep well 384-well plates (BrandTec, Catalog number 701355) at 8× the highest final concentration. Row and column dilutions were prepared separately using a Bravo liquid handler (Agilent Technologies). Dilutions were made at 1:2 giving a total of 10 dilutions for each compound. Once completed the row and column dilution plates were combined 1:1 giving a final stamping plate at 4× concentration.
(§2) The cell lines 449b, 778 and LP6 were cultured in RPMI1640 (ATCC, Catalog number 30-2110) supplemented with 10% FBS (HyClone, Catalog number SH30071.03) at 37° C. and 5% CO2. In all cases cells were thawed from frozen stocks, expanded through ≥1 passage using 1:6 dilutions. Cells were counted and assessed for viability using a ViCell counter (Beckman-Coulter). The identity of all the cell lines was confirmed by SNP profiling. […]
(§3) An automated image analysis pipeline was established using custom-made scripts in the open-source, statistical programming language R, and functions of the BioConductor package EBImage. The goal was to quantify the number of viable nuclei (cells) per well as an approximation for cell viability. […]

[3] = tested on: liposarcoma cell line 778; experiment: Microscopy (nuclei count) proliferation assay, 72 hrs, 778 cells; assay type: cell-based; conditions: single agent
Procedure: as §1
The cell lines 449b, 778 and LP6 were cultured in RPMI1640 (ATCC, Catalog number 30-2110) supplemented with 10% FBS (HyClone, Catalog number SH30071.03) at 37° C. and 5% CO2. In all cases cells were thawed from frozen stocks, expanded through ≥1 passage using 1:6 dilutions. Cells were counted and assessed for viability using a ViCell counter (Beckman-Coulter). The identity of all the cell lines was confirmed by SNP profiling.
All cells were seeded at a concentration of […] cells/mL in 30 uL RPMI1640 media using a BioTek MicroFill (BioTek). Four 384-well plates were prepared per cell line (Greiner bio-one, catalog number 781091). The next day, compound was added using Bravo liquid handler. […] To other plates, compound was added and plates were incubated for 72 hrs. Following incubation period, 10 ul of the media was removed using the ELx405 Microplate Washer (BioTek/Thermo Scientific). […]
as §3

[4] = tested on: liposarcoma cell line LP6; experiment: Microscopy (nuclei count) proliferation assay, 72 hrs, LP6 cells; assay type: cell-based; conditions: single agent
Procedure: as §1, §2, §3

| SMILES | Tumor T/C (HSAX2655 tumor) [%] | Tumor ΔTvol (HSAX2655 tumor) | Host ΔBW [1] [%] | Host Survival [1] | IC50 [2] [nM] | IC50 ([3]; 72 h) [nM] | IC50 [4] [nM] | IC50 [3] [nM] |
| --- | --- | --- | --- | --- | --- | --- | --- | --- |
| COc1cc2c(cc1OC(C)C)[C@H](c1ccc(Cl)cc1)N(c1ccc(N(C)C[C@H]3CC[C@H](N4CCN(C)C(=O)C4)CC3)cc1)C(=O)C2 [Compound A, (S)-1-(4-Chloro-phenyl)-7-isopropoxy-6-methoxy-2-(4-{methyl-[4-(4-methyl-3-oxo-piperazin-1-yl)-trans-cyclohexylmethyl]-amino}-phenyl)-1,4-dihydro-2H-isoquinolin-3-one] | 6 | 24 ± 12 ^a mm^3 | 6.9 ± 2.0 | 5/5 | – | – | – | – |
| CN(C)C(=O)c1cc2cnc(Nc3ccc(N4CCNCC4)cn3)nc2n1C1CCCC1 [Compound C, 7-Cyclopentyl-2-(5-piperazin-1-yl-pyridin-2-ylamino)-7H-pyrrolo[2,3-d]pyrimidine-6-carboxylic acid dimethylamide] | 18 | 66 ± 18 ^a mm^3 | 4.7 ± 2.3 | 5/5 | 130 | 59.3 | 475 | – |
| COc1ncc(-c2nc3c(n2C(C)C)[C@H](c2ccc(Cl)cc2)N(c2cc(Cl)cn(C)c2=O)C3=O)c(OC)n1 [Compound B, (S)-5-(5-Chloro-1-methyl-2-oxo-1,2-dihydro-pyridin-3-yl)-6-(4-chloro-phenyl)-2-(2,4-dimethoxy-pyrimidin-5-yl)-1-isopropyl-5,6-dihydro-1H-pyrrolo[3,4-d]imidazol-4-one] | – | – | – | – | 27.7 | 46.6 | 86 | 64.6 |

Reference: patent publication US10220038B2, “Pharmaceutical combinations” (Novartis AG, priority 2013, dated 2019)
